How the values were obtained:
[1] = tested on: LPS-induced TNF-α production; assay: Inhibition of LPS-induced TNF-α production in PBMac (ELISA); assay type: cell-based, Human; conditions: for inhibition of LPS-induced TNF-α protein production: PBMac pre-incubated with compound 18 h, then 10 ng/ml LPS for 24 h, ELISA of supernatant, mean±S.D., compound concentration not given (25 and 50 ug/ml tested)
Method: FIGS. 2 (A-C) show the inhibition of LPS-induced TNF-α production by Compound A1, Compound A2 and Cim A. PBMac cells are incubated with (A) 25 and 50 ug/ml A1 or (B) 25 and 50 ug/ml A2 or (C) 25 and 50 ug/ml Cim A for 18 h prior to the addition of 10 ng/ml LPS for another 24 h. The culture supernatants are collected and assayed for TNF-α production by enzyme-linked immunosorbent assay (ELISA). The results shown are the mean values±standard derivation (S.D.) of at least three independent experiments, with cells obtained from different donors. * P<0.05, ** P<0.01 compared with the control.
Endotoxin (lipopolysachamide, LPS) from E. coli was purchased from Sigma and used as an inducer of TNF-α expression. Dexamethasone (Sigma) was used as a control drug to inhibit the LPS induction of TNF-α.
(§1) Human peripheral blood monocytic cells (PBMC) were isolated from the buffy coat of healthy donor blood supplied by Hong Kong Red Cross by Ficoll-Paque (Amersham Pharmacia Biotech, Piscataway, N.J.) density gradient centrifugation as described in our previous reports. In brief, the buffy coat was spun at 3000 rotations per min (rpm) for 15 min to separate the blood cells and the plasma. The heat inactivated serum was filtered for future use.
(§2) The cell layer was diluted with phosphate buffered saline (PBS) in a ratio of 1:1. The diluted cells were overlaid on Ficoll-Paque slowly and centrifuged at 2300 rpm for 20 min for separation of mononuclear cells from erythrocytes. The mononuclear cell layer was removed and washed with RPMI 1640 medium until the supernatant was clear.
(§3) The cells were finally resuspended in RPMI 1640 medium supplemented with 5% autologous serum and cultured for 1 hr. The non-adherent cells were removed afterwards and the remaining adherent cells were further incubated for another 24 hr at 37° C. in 5% carbon dioxide (CO2).
(§4) The adherent monocytic cells were detached and seeded onto tissue culture plates and incubated for another 7-14 days in order to differentiate the primary blood monocytic cells to primary blood macrophages (PBMac).
Culture supernatants of the LPS-treated PBMac, with or without pretreatment of Cim A, Compound A1 or Compound A2, were collected at different time intervals and stored at −70° C. The levels of the secreted TNF-α were measured by ELISA kits specific for the cytokine (R&D system, Minneapolis, Minn.).

[2] = tested on: PBMac; assay: MTT cytotoxicity assay on PBMac; assay type: cell-based, Human; conditions: 25-75 ug/ml, time course of 48 h
Method: Incubation of PBMac cells with the compounds at various concentrations produces no significant difference in the metabolic activities of the cells, when compared to control. Cytotoxic effects of Compounds A1, A2 and Cim A (25-75 ug/ml) on PBMac are determined by MTT (3-[4,5-dimethylthiazol-2-yl]-2,5-di-phenyltetrazolim bromide) assays over a time course of 48 h.
as §1, §2, §3, §4

SMILES | inhibition of LPS-induced TNF-α protein production [1] | activity in inhibiting LPS-induced TNF-α production, higher than that of Cim A ([1]; compound at 50 μg/ml, relative to Cim A) | cytotoxic effects (MTT, metabolic activity of cells vs control) [2]
COc1ccc(/C=C/C(=O)OCC(=O)Cc2ccc(O)c(O)c2)cc1 [Compound A2] | 67±10% | 34% | almost no cytotoxic effects
O=C(COC(=O)/C=C/c1ccc(O)c(O)c1)Cc1cccc(O)c1 [Compound A1] | 26±15% | – | almost no cytotoxic effects
COc1ccc(/C=C/C(=O)OCC(=O)Cc2ccc(O)c(O)c2)cc1O [Cim A, Cimiracemate A, reference compound] | 50±19% | – | almost no cytotoxic effects

Source: patent US9216942B2, “Compounds and uses thereof for treating inflammation and modulating immune responses” (PURAPHARM COMPANY LIMITED, priority 2012, dated 2015)
